According to article PMC6152052, “Molecular Structure–Affinity Relationship of Flavonoids in Lotus Leaf (Nelumbo nucifera Gaertn.) on Binding to Human Serum Albumin and Bovine Serum Albumin by Spectroscopic Method” (Molecules : A Journal of Synthetic Chemistry and Natural …, 2017):
Read-outs that look alike come from different tables or passages of the source. Each block holds one compound with its values, some of them ahead of it.

What was measured:
[1] = target: T1, bovine serum albumin (BSA) (Bos taurus, UniProt P02769); experiment: intrinsic fluorescence quenching, double-log plot; type: binding
T1 construct: gene ALB
Source text: intrinsic fluorescence quenching, double-log plot on bovine serum albumin (BSA)

[2] = target: T2, human serum albumin (HSA) (Homo sapiens, UniProt P02768); experiment: intrinsic fluorescence quenching, double-log plot; type: binding
T2 construct: gene ALB; 585 residues, 66,500 Da, single non-glycosylated chain
Source text: intrinsic fluorescence quenching, double-log plot on human serum albumin (HSA)

T1 sequence (P02769 25-607): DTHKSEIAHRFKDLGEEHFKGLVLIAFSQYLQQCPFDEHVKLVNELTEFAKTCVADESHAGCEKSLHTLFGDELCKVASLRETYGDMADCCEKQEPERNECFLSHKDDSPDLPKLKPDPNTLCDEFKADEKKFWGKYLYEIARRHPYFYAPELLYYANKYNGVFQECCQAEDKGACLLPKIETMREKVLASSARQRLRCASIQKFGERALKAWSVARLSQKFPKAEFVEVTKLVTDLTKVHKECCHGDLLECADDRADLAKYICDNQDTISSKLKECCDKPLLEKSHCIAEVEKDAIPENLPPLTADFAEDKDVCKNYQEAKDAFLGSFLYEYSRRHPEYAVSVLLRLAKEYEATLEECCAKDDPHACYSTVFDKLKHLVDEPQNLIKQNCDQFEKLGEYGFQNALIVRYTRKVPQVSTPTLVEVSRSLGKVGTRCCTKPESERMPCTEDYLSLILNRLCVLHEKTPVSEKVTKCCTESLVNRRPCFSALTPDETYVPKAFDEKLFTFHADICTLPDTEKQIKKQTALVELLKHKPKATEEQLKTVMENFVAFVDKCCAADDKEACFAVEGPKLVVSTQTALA
T2 sequence (P02768 25-609): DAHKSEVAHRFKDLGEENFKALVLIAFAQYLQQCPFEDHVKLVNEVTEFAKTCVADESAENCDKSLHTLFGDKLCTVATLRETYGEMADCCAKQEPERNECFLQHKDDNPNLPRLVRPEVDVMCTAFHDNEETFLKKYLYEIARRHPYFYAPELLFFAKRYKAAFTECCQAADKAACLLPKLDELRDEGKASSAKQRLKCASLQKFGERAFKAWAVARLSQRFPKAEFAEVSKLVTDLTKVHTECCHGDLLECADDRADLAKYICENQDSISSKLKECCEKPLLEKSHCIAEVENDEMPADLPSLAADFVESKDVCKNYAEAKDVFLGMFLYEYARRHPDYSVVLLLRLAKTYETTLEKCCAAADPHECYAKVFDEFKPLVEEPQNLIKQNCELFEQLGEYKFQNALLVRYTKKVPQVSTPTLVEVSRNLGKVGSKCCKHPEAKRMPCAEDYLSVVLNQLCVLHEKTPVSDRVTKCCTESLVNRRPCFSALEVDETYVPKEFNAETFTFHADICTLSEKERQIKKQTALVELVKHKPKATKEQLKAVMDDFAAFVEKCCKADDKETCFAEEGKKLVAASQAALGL

SMILES: O=c1c(O[C@@H]2O[C@H](CO)[C@@H](O)[C@H](O)[C@H]2O)c(-c2ccc(O)cc2)oc2cc(O)cc(O)c12 [compound 1, astragalin]
BSA Affinity / logKa ([1]; PBS pH 7.4, 300.15 K, ex 280 nm, em 341 nm, n = 0.963, double-log): 6.359 log (L/mol)
HSA Affinity / logKa ([2]; PBS pH 7.4, 300.15 K, ex 280 nm, em 336 nm, n = 0.994, double-log): 6.234 log (L/mol)

SMILES: C[C@@H]1O[C@@H](OC[C@H]2O[C@@H](Oc3c(-c4ccc(O)c(O)c4)oc4cc(O)cc(O)c4c3=O)[C@H](O)[C@@H](O)[C@@H]2O)[C@H](O)[C@H](O)[C@H]1O [compound 2, rutin]
BSA Affinity / logKa ([1]; PBS pH 7.4, 300.15 K, ex 280 nm, em 341 nm, n = 0.962, double-log): 6.686 log (L/mol)
HSA Affinity / logKa ([2]; PBS pH 7.4, 300.15 K, ex 280 nm, em 336 nm, n = 0.992, double-log): 5.896 log (L/mol)

SMILES: O=c1c(O[C@@H]2O[C@H](CO)[C@H](O)[C@H](O)[C@H]2O)c(-c2ccc(O)c(O)c2)oc2cc(O)cc(O)c12 [compound 3, hyperoside]
BSA Affinity / logKa ([1]; PBS pH 7.4, 300.15 K, ex 280 nm, em 341 nm, n = 0.950, double-log): 6.891 log (L/mol)
HSA Affinity / logKa ([2]; PBS pH 7.4, 300.15 K, ex 280 nm, em 336 nm, n = 0.960, double-log): 6.802 log (L/mol)

SMILES: O=c1c(O[C@@H]2O[C@H](CO)[C@@H](O)[C@H](O)[C@H]2O)c(-c2ccc(O)c(O)c2)oc2cc(O)cc(O)c12 [compound 4, isoquercitrin]
BSA Affinity / logKa ([1]; PBS pH 7.4, 300.15 K, ex 280 nm, em 341 nm, n = 0.938, double-log): 7.095 log (L/mol)
HSA Affinity / logKa ([2]; PBS pH 7.4, 300.15 K, ex 280 nm, em 336 nm, n = 0.936, double-log): 6.584 log (L/mol)

SMILES: O=C1c2c(O)cc(O)cc2O[C@H](c2ccc(O)c(O)c2)[C@H]1O [compound 5, taxifolin]
BSA Affinity / logKa [1]: 7.067 log (L/mol)
HSA Affinity / logKa [2]: 6.748 log (L/mol)

SMILES: O=c1c(O)c(-c2ccc(O)c(O)c2)oc2cc(O)cc(O)c12 [compound 7, quercetin]
BSA Affinity / logKa [1]: 7.299 log (L/mol)
HSA Affinity / logKa [2]: 7.089 log (L/mol)

SMILES: O=C1C[C@@H](c2ccc(O)cc2)Oc2cc(O)cc(O)c21 [compound 9, naringenin]
BSA Affinity / logKa [1]: 6.982 log (L/mol)
HSA Affinity / logKa [2]: 6.493 log (L/mol)

Now from value to compound:

BSA Affinity / logKa ([1]; PBS pH 7.4, 300.15 K, ex 280 nm, em 341 nm, n = 0.923, double-log): 7.110 log (L/mol)
HSA Affinity / logKa ([2]; PBS pH 7.4, 300.15 K, ex 280 nm, em 336 nm, n = 0.904, double-log): 7.064 log (L/mol)
SMILES: O=c1cc(-c2ccc(O)c(O)c2)oc2cc(O)cc(O)c12 [compound 6, luteolin]

BSA Affinity / logKa ([1]; PBS pH 7.4, 300.15 K, ex 280 nm, em 341 nm, n = 0.870, double-log): 7.086 log (L/mol)
HSA Affinity / logKa ([2]; PBS pH 7.4, 300.15 K, ex 280 nm, em 336 nm, n = 0.962, double-log): 6.655 log (L/mol)
SMILES: O=c1cc(-c2ccc(O)cc2)oc2cc(O)cc(O)c12 [compound 8, apigenin]

BSA Affinity / logKa ([1]; PBS pH 7.4, 300.15 K, ex 280 nm, em 341 nm, n = 0.911, double-log): 7.106 log (L/mol)
HSA Affinity / logKa ([2]; PBS pH 7.4, 300.15 K, ex 280 nm, em 336 nm, n = 0.918, double-log): 6.830 log (L/mol)
SMILES: O=c1c(O)c(-c2ccc(O)cc2)oc2cc(O)cc(O)c12 [compound 10, kaempferol]

BSA Affinity / logKa ([1]; PBS pH 7.4, 300.15 K, ex 280 nm, em 341 nm, n = 0.941, double-log): 6.828 log (L/mol)
HSA Affinity / logKa ([2]; PBS pH 7.4, 300.15 K, ex 280 nm, em 336 nm, n = 0.923, double-log): 6.798 log (L/mol)
SMILES: COc1cc(-c2oc3cc(O)cc(O)c3c(=O)c2O)ccc1O [compound 11, isorhamnetin]
